Measured values: ChEMBL document CHEMBL3400010, “Cytotoxic and antioxidant constituents from the leaves of Psidium guajava” (Bioorg Med Chem Lett, 2015)
In brackets after ≈: the same amount, converted by molar mass.

Assays:
[1] = Cytotoxicity against human SGC7901 cells by MTT assay; assay type: functional, cell-based; conditions: SGC-7901
A549 = assay: Cytotoxicity against human A549 cells by MTT assay; assay type: functional, cell-based
HeLa = assay: Cytotoxicity against human HeLa cells by MTT assay; assay type: functional, cell-based
[2] = Antioxidant activity assessed as DPPH radical scavenging activity after 30 mins by microplate reader based assay; assay type: physicochemical
[3] = Antioxidant activity assessed as ABTS radical scavenging activity after 15 mins; assay type: physicochemical
[4] = Antioxidant activity assessed as FRAP values at 12.5 ug/ml incubated at 37 degC for 5 mins by FeSO4.7H2O calibration curve based method; assay type: physicochemical
[5] = Antioxidant activity assessed as FRAP values at 25 ug/ml incubated at 37 degC for 5 mins by FeSO4.7H2O calibration curve based method; assay type: physicochemical
[6] = Antioxidant activity assessed as FRAP values at 50 ug/ml incubated at 37 degC for 5 mins by FeSO4.7H2O calibration curve based method; assay type: physicochemical
[7] = Antioxidant activity assessed as FRAP values at 100 ug/ml incubated at 37 degC for 5 mins by FeSO4.7H2O calibration curve based method; assay type: physicochemical

Row | SMILES | IC50 [2] [µg/mL] | IC50 [3] [µg/mL] | Activity [4] [µmol/L] | Activity [5] [µmol/L] | Activity [6] [µmol/L] | Activity [7] [µmol/L] | IC50 [1] [µg/mL] | IC50 (A549) [µg/mL] | IC50 (HeLa) [µg/mL]
1 | Cc1c(O)c(C)c(O[C@@H]2O[C@H](CO)[C@@H](O)[C@H](O)[C@H]2O)c(C(=O)c2ccccc2)c1O | > 100 | 32.97 (≈ 78.4 µM) | 11.54 | 14 | 23.73 | 46.37 | > 10 | > 10 | > 10
2 | C/C(=C/O[C@@H]1O[C@H](COC(=O)c2cc(O)c(O)c(O)c2)[C@@H](O)[C@H](O)[C@H]1O)C(=O)O | 13.1 (≈ 31.5 µM) | 5.93 (≈ 14.2 µM) | 70.64 | 152.02 | 263.31 | 413.94 | 3.73 (≈ 8.96 µM) | 7.01 (≈ 16.8 µM) | 3.51 (≈ 8.44 µM)
3 | O=C1O[C@H]([C@@H](O)CO)C(O)=C1O [ASCORBIC ACID] | 16.3 (≈ 92.5 µM) | 8.53 (≈ 48.4 µM) | 149.97 | 292.1 | 396.76 | 442.43 |  |  | 
4 | COc1cccc2c1C(=O)c1c(O)c3c(c(O)c1C2=O)C[C@@](O)(C(=O)CO)C[C@@H]3O[C@H]1C[C@H](N)[C@H](O)[C@H](C)O1 [DOXORUBICIN] |  |  |  |  |  |  | 1.36 (≈ 2.5 µM) | 3.12 (≈ 5.74 µM) | 2.68 (≈ 4.94 µM)
5 | O=c1c(O)c(-c2ccc(O)c(O)c2)oc2cc(O)cc(O)c12 [QUERCETIN] | 11 (≈ 36.4 µM) | 4.4 (≈ 14.6 µM) | 333.26 | 359.18 | 379.4 | 401.27 | 7.88 (≈ 26.1 µM) | > 10 | 8.26 (≈ 27.3 µM)

Now from value to compound, other results behind:

Row | IC50 [2] [µg/mL] | IC50 [3] [µg/mL] | Activity [4] [µmol/L] | Activity [5] [µmol/L] | Activity [6] [µmol/L] | Activity [7] [µmol/L] | SMILES | IC50 [1] [µg/mL] | IC50 (A549) [µg/mL] | IC50 (HeLa) [µg/mL]
6 | 13.07 (≈ 26 µM) | 5.47 (≈ 10.9 µM) | 91.28 | 143.76 | 250.53 | 386.38 | O=C(OC[C@H]1O[C@@H](Oc2cc(-c3ccccc3)oc(=O)c2)[C@H](O)[C@@H](O)[C@@H]1O)c1cc(O)c(O)c(O)c1 | 4.28 (≈ 8.51 µM) | 7.29 (≈ 14.5 µM) | 3.25 (≈ 6.46 µM)
7 | > 100 | 29.27 (≈ 72 µM) |  |  |  |  | Cc1c(O)cc(O[C@@H]2O[C@H](CO)[C@@H](O)[C@H](O)[C@H]2O)c(C(=O)c2ccccc2)c1O | > 10 | > 10 | > 10
8 | 37.93 (≈ 69.7 µM) | 13.63 (≈ 25 µM) | 18.46 | 53.29 | 131.03 | 174.6 | O=C(OC[C@H]1O[C@@H](Oc2cc(O)c(C(=O)c3ccccc3)c(O)c2)[C@H](O)[C@@H](O)[C@@H]1O)c1cc(O)c(O)c(O)c1 | > 10 | > 10 | > 10
9 | 28.33 (≈ 49.5 µM) | 8.3 (≈ 14.5 µM) | 48.3 | 90.63 | 185.03 | 341.94 | Cc1c(O)c(C(=O)c2ccccc2)c(O)c(C)c1O[C@@H]1O[C@H](COC(=O)c2cc(O)c(O)c(O)c2)[C@@H](O)[C@H](O)[C@H]1O | > 10 | > 10 | > 10
10 | 16.13 (≈ 37.1 µM) | 6.9 (≈ 15.9 µM) | 123.88 | 269 | 291.63 | 324.58 | O=c1c(O[C@@H]2O[C@@H](CO)[C@H](O)[C@H]2O)c(-c2ccc(O)c(O)c2)oc2cc(O)cc(O)c12 [AVICULARIN] | > 10 | > 10 | > 10
11 | 13.43 (≈ 30.9 µM) | 6.7 (≈ 15.4 µM) | 57.21 | 175.59 | 220.51 | 346.45 | O=c1c(O[C@@H]2OC[C@H](O)[C@H](O)[C@H]2O)c(-c2ccc(O)c(O)c2)oc2cc(O)cc(O)c12 [GUAJAVERIN] | > 10 | > 10 | > 10
12 | 27.03 (≈ 58.2 µM) | 10.57 (≈ 22.8 µM) | 68.06 | 155.89 | 287.94 | 329.68 | O=c1c(O[C@@H]2O[C@H](CO)[C@H](O)[C@H](O)[C@H]2O)c(-c2ccc(O)c(O)c2)oc2cc(O)cc(O)c12 [HYPEROSIDE] | > 10 | > 10 | > 10
